Experiments:
[1] = test system: Uromyces viciae-Fabae; experiment: Uromyces viciae-fabae / field bean / leaf disc preventative (faba-bean rust); format: in vivo; conditions: foliar, 288 h, 100 ppm in the applied formulation, field bean leaf discs, assessed 12 days after application, read-out: disease control compared to untreated control leaf discs
Description: Leaf disks or leaf segments of various plant species are cut from plants grown in a greenhouse. The cut leaf disks or segments are placed in multiwell plates (24-well format) onto water agar. The leaf disks are sprayed with a test solution before (preventative) or after (curative) inoculation. Compounds to be tested are prepared as DMSO solutions (max. 10 mg/mL) which are diluted to the appropriate concentration with 0.025% Tween20 just before spraying. The inoculated leaf disks or segments are incubated under defined conditions (temperature, relative humidity, light, etc.) according to the respective test system. A single evaluation of disease level is carried out 3 to 14 days after inoculation, depending on the pathosystem. Percent disease control relative to the untreated check leaf disks or segments is then calculated.
Example 5: Fungicidal Activity Against Uromyces viciae-Fabael Field Bean/Leaf Disc Preventative (Faba-Bean Rust)
Field bean leaf discs are placed on water agar in multiwell plates (96-well format) and 10 μL of the formulated test compound diluted in acetone and a spreader pipetted onto the leaf disc. Two hours after application leaf discs are inoculated by spraying a spore suspension on the lower leaf surface. The leaf discs are incubated in a climate cabinet at 22° C. with 18 hour days and 70% relative humidity. The activity of a compound is assessed as percent disease control compared to untreated when an appropriate level of disease damage appears in untreated check leaf disks (12 days after application).
The following compounds at 100 ppm in the applied formulation give at least 80% disease control in this test when compared to untreated control leaf discs under the same conditions, which show extensive disease development.

[2] = test system: Puccinia recondita f. Sp. Tritici; experiment: Puccinia recondita f. sp. tritici / wheat / leaf disc curative (brown rust); format: in vivo; conditions: foliar, 200 ppm in the applied formulation, wheat leaf segments, curative (applied 1 day after inoculation), assessed 6 to 8 days after application, read-out: disease control compared to untreated control leaf disks
Method in brief: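 Curative treatment: formulated compound in water was applied 1 day post-inoculation to spore-inoculated wheat cv. Kanzler segments held on agar. Segments stayed at 19° C and 75% relative humidity (12 h photoperiod after application), and disease control relative to untreated checks was assessed 6 to 8 days later.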

[3] = test system: Phakopsora pachyrhizi; experiment: Phakopsora pachyrhizi / soybean / leaf disc preventative (Asian soybean rust); format: in vivo; conditions: foliar, 200 ppm in the applied formulation, soybean leaf disks, assessed 12 to 14 days after application, read-out: disease control compared to untreated control leaf disks
Method in brief: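 Soybean leaf discs on water agar were sprayed with formulated compound diluted in water, then inoculated one day later with spore suspension on the lower leaf surface. Held 24-36 h dark at 20° C., 75% RH, then 12 h light/day; percent disease control versus untreated scored 12 to 14 days after application.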

[4] = test system: Puccinia recondita f. Sp. Tritici; experiment: Puccinia recondita f. sp. tritici / wheat / leaf disc preventative (brown rust); format: in vivo; conditions: foliar, 200 ppm in the applied formulation, wheat leaf segments, preventative, assessed 7 to 9 days after application, read-out: disease control compared to untreated control leaf disks
Method in brief: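 Wheat cv. Kanzler leaf segments on agar sprayed with formulated compound in water, inoculated with rust spores 1 day later. Incubated at 19° C, 75% rh, 12 h light/12 h dark; percent disease control versus untreated scored 7 to 9 days after application; tested at 200 ppm.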

[5] = test system: Glomerella lacenarium (Colletotrichum lacenarium); experiment: Glomerella lacenarium (Colletotrichum lacenarium) liquid culture / cucumber / preventative (anthracnose); format: cell-based; conditions: 20 ppm in the applied formulation, liquid culture in PDB, 24° C., 3 to 4 days after application, read-out: disease control (inhibition of growth, photometric) compared to untreated control
Method in brief: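 At 20 ppm in the applied formulation, compounds were mixed with fungal spores in potato dextrose broth and held at 24° C. After 3–4 days, photometric growth measurement gave percent antifungal activity relative to untreated control.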

Row | SMILES | pest or weed control at 100 ppm [1] | melting point | pest or weed control at 200 ppm [2] | pest or weed control at 200 ppm [3] | pest or weed control at 200 ppm [4] | inhibition at 20 ppm [5]
1 | COCCNC(=O)C(=O)Nc1ccc(-c2noc(C(F)(F)F)n2)cc1 [Compound 4.4, N-(2-methoxyethyl)-N′-[4-[5-(trifluoromethyl)-1,2,4-oxadiazol-3-yl]phenyl]oxamide] | ≥ 80% | 204 to 205 °C | ≥ 80% | ≥ 80% | ≥ 80% | 
2 | CN(C)C(=O)C(=O)NCc1ccc(-c2noc(C(F)(F)F)n2)cc1 [Compound 4.2] | ≥ 80% | 107 to 112 °C | ≥ 80% | ≥ 80% | ≥ 80% | ≥ 80%
3 | CNC(=O)C(=O)Nc1ccc(-c2noc(C(F)(F)F)n2)cc1 [Compound 4.7, N-methyl-N′-[4-[5-(trifluoromethyl)-1,2,4-oxadiazol-3-yl]phenyl]oxamide] | ≥ 80% | 231 to 234 °C | ≥ 80% | ≥ 80% | ≥ 80% | 
4 | CN(C)C(=O)C(=O)Nc1ccc(-c2noc(C(F)(F)F)n2)cc1 [Compound 4.1, N′,N′-dimethyl-N-[4-[5-(trifluoromethyl)-1,2,4-oxadiazol-3-yl]phenyl]oxamide] | ≥ 80% | 127 to 130 °C | ≥ 80% | ≥ 80% | ≥ 80% | ≥ 80%

From patent US20180370927A1, “MICROBIOCIDAL OXADIAZOLE DERIVATIVES” (SYNGENTA PARTICIPATIONS AG, priority 2015, published 2018)
